Legend:
Assay in all cases: In vitro antibacterial activity, agar dilution MIC
Type in all cases: cell-based
[1] = tested on: Haemophilislnfluenzae DILL AMP R; conditions: code WW, BHI agar, 35-37° C., 20 to 24 hours, unit assumed
Protocol: (§1) Representative compounds of the present invention were assayed in vitro for antibacterial activity as follows: Twelve petri dishes containing successive aqueous dilutions of the test compound mixed with 10 mL of sterilized Brain Heart Infusion (BHI) agar (Difco 0418-01-5) were prepared. Each plate was inoculated with 1:100 (or 1:10 for slow-growing strains, such as Micrococcus and Streptococcus) dilutions of up to 32 different microorganisms, using a Steers replicator block. The inoculated plates were incubated at 35-37° C. for 20 to 24 hours. In addition, a control plate, using BHI agar containing no test compound, was prepared and incubated at the beginning and end of each test.
(§2) An additional plate containing a compound having known susceptibility patterns for the organisms being tested and belonging to the same antibiotic class as the test compound was also prepared and incubated as a further control, as well as to provide test-to-test comparability.
(§3) After incubation, each plate was visually inspected. The minimum inhibitory concentration (MIC) was defined as the lowest concentration of drug yielding no growth, a slight haze, or sparsely isolated colonies on the inoculum spot as compared to the growth control.

Escherichiacoli SS = conditions: code RR, BHI agar, 35-37° C., 20 to 24 hours, unit assumed
Protocol: as §1, §2, §3

Candida albicans CCH 442 = conditions: code TT, BHI agar, 35-37° C., 20 to 24 hours, unit assumed
Protocol: as §1, §2, §3

[2] = tested on: Micrococcusluteus ATCC 9341; conditions: code OO, BHI agar, 35-37° C., 20 to 24 hours, unit assumed
Protocol: as §1, §2, §3

[3] = tested on: Streptococcus Pneumonia GYR 1171; conditions: code YY, BHI agar, 35-37° C., 20 to 24 hours, unit assumed
Protocol: as §1, §2, §3

[4] = tested on: Enterococcusfaecium ATCC X043; conditions: code II, BHI agar, 35-37° C., 20 to 24 hours, unit assumed
Protocol: as §1, §2, §3

[5] = tested on: Micrococcusluteus ATCC 4698; conditions: code PP, BHI agar, 35-37° C., 20 to 24 hours, unit assumed
Protocol: as §1, §2, §3

[6] = tested on: Streptococcus agalactiae CMX 508; conditions: code KK, BHI agar, 35-37° C., 20 to 24 hours, unit assumed
Protocol: as §1, §2, §3

[7] = tested on: Streptococcus pyogenes EES61; conditions: code LL, BHI agar, 35-37° C., 20 to 24 hours, unit assumed
Protocol: as §1, §2, §3

[8] = tested on: Streptococcus Pneumonia 5649; conditions: code ZZA, BHI agar, 35-37° C., 20 to 24 hours, unit assumed
Protocol: as §1, §2, §3

[9] = tested on: Streptococcus pyogenes PIU 2548; conditions: code NN, BHI agar, 35-37° C., 20 to 24 hours, unit assumed
Protocol: as §1, §2, §3

[10] = tested on: Staphylococcus aureus A-5177; conditions: code BB, BHI agar, 35-37° C., 20 to 24 hours, unit assumed
Protocol: as §1, §2, §3

[11] = tested on: Streptococcus pyogenes 930; conditions: code MM, BHI agar, 35-37° C., 20 to 24 hours, unit assumed
Protocol: as §1, §2, §3

[12] = tested on: Staphylococcus aureus NCTC 10649M; conditions: code EE, BHI agar, 35-37° C., 20 to 24 hours, unit assumed
Protocol: as §1, §2, §3

[13] = tested on: Staphylococcus aureus 1775; conditions: code GG, BHI agar, 35-37° C., 20 to 24 hours, unit assumed
Protocol: as §1, §2, §3

[14] = tested on: Mycobacterium smegmatis ATCC 114; conditions: code UU, BHI agar, 35-37° C., 20 to 24 hours, unit assumed
Protocol: as §1, §2, §3

[15] = tested on: Staphylococcus aureus CMX 642A; conditions: code DD, BHI agar, 35-37° C., 20 to 24 hours, unit assumed
Protocol: as §1, §2, §3

[16] = tested on: Nocardia Asteroides ATCC 99700; conditions: code VV, BHI agar, 35-37° C., 20 to 24 hours, unit assumed
Protocol: as §1, §2, §3

[17] = tested on: Staphylococcus aureus ATCC 6538P; conditions: code AA, BHI agar, 35-37° C., 20 to 24 hours, unit assumed
Protocol: as §1, §2, §3

[18] = tested on: Streptococcus Pneumonia 5979; conditions: code ZZ, BHI agar, 35-37° C., 20 to 24 hours, unit assumed
Protocol: as §1, §2, §3

[19] = tested on: Streptococcus Pneumonia ATCC 6303; conditions: code XX, BHI agar, 35-37° C., 20 to 24 hours, unit assumed
Protocol: as §1, §2, §3

Escherichiacoli JUHL = conditions: code QQ, BHI agar, 35-37° C., 20 to 24 hours, unit assumed
Protocol: as §1, §2, §3

[20] = tested on: Streptococcus bovis A-5169; conditions: code JJ, BHI agar, 35-37° C., 20 to 24 hours, unit assumed
Protocol: as §1, §2, §3

[21] = tested on: Staphylococcus epidermidis 3519; conditions: code HH, BHI agar, 35-37° C., 20 to 24 hours, unit assumed
Protocol: as §1, §2, §3

[22] = tested on: Staphylococcus aureus A-5278; conditions: code CC, BHI agar, 35-37° C., 20 to 24 hours, unit assumed
Protocol: as §1, §2, §3

Escherichiacoli DC-2 = conditions: code SS, BHI agar, 35-37° C., 20 to 24 hours, unit assumed
Protocol: as §1, §2, §3

[23] = tested on: Staphylococcus aureus CMX 553; conditions: code FF, BHI agar, 35-37° C., 20 to 24 hours, unit assumed
Protocol: as §1, §2, §3

Row | Structure (SMILES) | Antibacterial Activity (MIC) [1] | Antibacterial Activity (MIC) (Escherichiacoli SS) | Antibacterial Activity (MIC) (Candida albicans CCH 442) | Antibacterial Activity (MIC) [2] | Antibacterial Activity (MIC) [3] | Antibacterial Activity (MIC) [4] | Antibacterial Activity (MIC) [5] | Antibacterial Activity (MIC) [6] | Antibacterial Activity (MIC) [7] | Antibacterial Activity (MIC) [8] | Antibacterial Activity (MIC) [9] | Antibacterial Activity (MIC) [10] | Antibacterial Activity (MIC) [11] | Antibacterial Activity (MIC) [12] | Antibacterial Activity (MIC) [13] | Antibacterial Activity (MIC) [14] | Antibacterial Activity (MIC) [15] | Antibacterial Activity (MIC) [16] | Antibacterial Activity (MIC) [17] | Antibacterial Activity (MIC) [18] | other results
1 | CCC1OC(=O)C(C)(O)C(=O)C(C)C(OC2OC(C)CC(N(C)C)C2O)C(C)(OCC(O)CO)CC(C)C(=O)C(C)C2NC(=O)OC12C (stereo not drawn) [Example 3, Compound of formula (II): R^a is —CH2CH(OH)CH2OH, R^b is H, Y and Z together are O, T is —NH—, R is —OH] | > 128 µg/mL | 100 µg/mL | > 100 µg/mL | 50 µg/mL | 32 µg/mL | 100 µg/mL | > 100 µg/mL | 50 µg/mL | 100 µg/mL | > 128 µg/mL | > 100 µg/mL | > 100 µg/mL | > 100 µg/mL | > 100 µg/mL | > 100 µg/mL | > 100 µg/mL | > 100 µg/mL | > 100 µg/mL | > 100 µg/mL | > 128 µg/mL | Antibacterial Activity (MIC) [19]: 64 µg/mL; Antibacterial Activity (MIC) (Escherichiacoli JUHL): > 100 µg/mL; Antibacterial Activity (MIC) [20]: 50 µg/mL; Antibacterial Activity (MIC) [21]: > 100 µg/mL; Antibacterial Activity (MIC) [22]: > 100 µg/mL; Antibacterial Activity (MIC) (Escherichiacoli DC-2): > 100 µg/mL; Antibacterial Activity (MIC) [23]: > 100 µg/mL
2 | C=CCC1(C)C(=O)OC(CC)C2(C)OC(=O)NC2C(C)C(=O)C(C)CC(C)(OCC=Cc2cnc3ccccc3c2)C(OC2OC(C)CC(N(C)C)C2O)C(C)C1=O (stereo not drawn) [Example 4, Compound of formula (II): R^a is —CH2CH═CH-(3-quinolinyl), R^b is H, Y and Z together are O, T is —NH—, R is —CH2CH═CH2] | 16 µg/mL | 3.1 µg/mL | > 100 µg/mL | 0.1 µg/mL | 0.25 µg/mL | 0.2 µg/mL | 0.78 µg/mL | 0.2 µg/mL | 0.1 µg/mL | 2 µg/mL | 0.78 µg/mL | 0.39 µg/mL | 12.5 µg/mL | 0.78 µg/mL | > 100 µg/mL | 3.1 µg/mL | 0.78 µg/mL | 0.1 µg/mL | 0.78 µg/mL | 64 µg/mL | Antibacterial Activity (MIC) [19]: 0.25 µg/mL; Antibacterial Activity (MIC) (Escherichiacoli JUHL): > 100 µg/mL; Antibacterial Activity (MIC) [20]: 0.05 µg/mL; Antibacterial Activity (MIC) [21]: 0.39 µg/mL; Antibacterial Activity (MIC) [22]: > 100 µg/mL; Antibacterial Activity (MIC) (Escherichiacoli DC-2): > 100 µg/mL; Antibacterial Activity (MIC) [23]: 0.39 µg/mL
3 | CCC1OC(=O)C(C)(O)C(=O)C(C)C(OC2OC(C)CC(N(C)C)C2O)C(C)(OCC=Cc2cnc3ccccc3c2)CC(C)C(=O)C(C)C2NC(=O)OC12C (stereo not drawn) [Example 8, Compound of formula (II): R^a is —CH2CH═CH-(3-quinolinyl), R^b is H, Y and Z together are O, T is —NH—, R is —OH] | 16 µg/mL | 0.2 µg/mL | > 100 µg/mL | 0.02 µg/mL | 0.03 µg/mL | 0.2 µg/mL | 0.2 µg/mL | 0.01 µg/mL | 0.02 µg/mL | 0.5 µg/mL | 0.39 µg/mL | 0.39 µg/mL | 50 µg/mL | 0.78 µg/mL | > 100 µg/mL | 3.1 µg/mL | 0.39 µg/mL | 0.39 µg/mL | 0.39 µg/mL | 128 µg/mL | Antibacterial Activity (MIC) [19]: 0.03 µg/mL; Antibacterial Activity (MIC) (Escherichiacoli JUHL): > 100 µg/mL; Antibacterial Activity (MIC) [20]: 0.02 µg/mL; Antibacterial Activity (MIC) [21]: 0.39 µg/mL; Antibacterial Activity (MIC) [22]: > 100 µg/mL; Antibacterial Activity (MIC) (Escherichiacoli DC-2): > 100 µg/mL; Antibacterial Activity (MIC) [23]: 0.78 µg/mL
4 | C#CCOC1(C)CC(C)C(=O)C(C)C2NC(=O)OC2(C)C(CC)OC(=O)C(C)(CC=Cc2ccccc2)C(=O)C(C)C1OC1OC(C)CC(N(C)C)C1O (stereo not drawn) [Example 9, Compound of formula (II): R^a is —CH2C═CH, R^b is H, Y and Z together are O, T is —NH—, R is —CH2CH═CH-(phenyl)] | > 64 µg/mL | 6.2 µg/mL | > 100 µg/mL | 1.56 µg/mL | 1 µg/mL | 3.1 µg/mL | 3.1 µg/mL | 1.56 µg/mL | 1.56 µg/mL | 8 µg/mL | 3.1 µg/mL | 3.1 µg/mL | 50 µg/mL | 12.5 µg/mL | > 100 µg/mL | 12.5 µg/mL | 3.1 µg/mL | 1.56 µg/mL | 3.1 µg/mL | 64 µg/mL | Antibacterial Activity (MIC) [19]: 1 µg/mL; Antibacterial Activity (MIC) (Escherichiacoli JUHL): > 100 µg/mL; Antibacterial Activity (MIC) [20]: 0.78 µg/mL; Antibacterial Activity (MIC) [21]: 6.2 µg/mL; Antibacterial Activity (MIC) [22]: > 100 µg/mL; Antibacterial Activity (MIC) (Escherichiacoli DC-2): > 100 µg/mL; Antibacterial Activity (MIC) [23]: 3.1 µg/mL
